Test results from US6264916A, “N,N-dimethyldiatrizoic acid and its conjugates as hepatobiliary agents for x-ray CT imaging” (Bracco Research, USA, priority 2000, dated 2001).
Like-named read-outs stand apart in the source and are kept apart here.

Test: Biodistribution studies in mice (radioiodinated compounds, % ID/g-tissue)
Type: in vivo
Details: tracer level, but MDTA-Na 0.18M and MDTA-NMG 0.19M; for tissue uptake at 1 min / tissue uptake at 5 min / tissue uptake at 1 h: mouse, iv
Description: All of the new analogs were radiolabeled in order to determine their physical and biological properties. The iodinated compounds were exchange-labeled by heating with Na^125 I in the presence of CuSO4 and Na2 S2 O5 in glacial acetic acid at 135-150° C. for 1 h, followed by HPLC purification using a nucleosil C18 column and CH3 CN--H2 O containing 0.1% TFA as an eluent. In some cases (e.g. the compound of Example 12) the radioiodination was carried out by heating with Na*I in HOAc--NaOAc (pH 4.6) at 100° C. for 15 min. In all cases radiolabeled compounds of acceptable radiochemical purity and specific activity were obtained.
The compound of formula I, N,N-dimethyl-diatrizoic acid, was similarly radiolabeled for biological studies.
a) For intravenous administration the preferred vehicle for the compounds of formula I, II and III is bovine serum albumin, however, other physiologically acceptable vehicles may also be used.
Biodistribution studies were conducted in mice and the results are given in Table I. X-Ray CT images of MDTA in mice and rats indicate that these hydrophobic diatrizoate analogs may be of promise for liver imaging.

[1] = blood, blood, 1', read-out: Biodistribution, Blood 1'
[2] = blood, blood, 5', read-out: Biodistribution, Blood 5'
[3] = blood, blood, 60', read-out: Biodistribution, Blood 60'
[4] = kidney, kidney, 1', read-out: Biodistribution, Kidney 1'
[5] = kidney, kidney, 5', read-out: Biodistribution, Kidney 5'
[6] = kidney, kidney, 60', read-out: Biodistribution, Kidney 60'
[7] = liver, liver, 1', read-out: Biodistribution, Liver 1'
[8] = liver, liver, 5', read-out: Biodistribution, Liver 5'
[9] = liver, liver, 60', read-out: Biodistribution, Liver 60'
[10] = small/large intestine, small/large intestine, 1', read-out: Biodistribution, Sm/Lrg. Intestine 1'
[11] = small/large intestine, small/large intestine, 5', read-out: Biodistribution, Sm/Lrg. Intestine 5'
[12] = small/large intestine, small/large intestine, 60', read-out: Biodistribution, Sm/Lrg. Intestine 60'

Row | Compound | tissue uptake at 1 min [1] | tissue uptake at 5 min [2] | tissue uptake at 1 h [3] | tissue uptake at 1 min [4] | tissue uptake at 5 min [5] | tissue uptake at 1 h [6] | tissue uptake at 1 min [7] | tissue uptake at 5 min [8] | tissue uptake at 1 h [9] | tissue uptake at 1 min [10] | tissue uptake at 5 min [11] | tissue uptake at 1 h [12] | further results
1 | 9(10)-N-(4-(((3,5-Bis-(acetylmethylamino)-2,4,6-triiodophenyl)carbonyl)amino)benzoyl)amino-octadecanoic acid [9/10-F-18P-MDTA] |  |  |  |  |  |  |  |  |  |  |  |  | Biodistribution, Blood 1' (blood, 1', 1 min): 6.16 % ID/g-tissue; Biodistribution, Blood 5' (blood, 5', 5 min): 0.46 % ID/g-tissue; Biodistribution, Blood 60' (blood, 60', 60 min): 0.26 % ID/g-tissue; Biodistribution, Kidney 1' (kidney, 1', 1 min): 3.32 % ID/g-tissue; Biodistribution, Kidney 5' (kidney, 5', 5 min): 2.09 % ID/g-tissue; Biodistribution, Kidney 60' (kidney, 60', 60 min): 0.39 % ID/g-tissue; Biodistribution, Liver 1' (liver, 1', 1 min): 30.29 % ID/g-tissue; Biodistribution, Liver 5' (liver, 5', 5 min): 32.33 % ID/g-tissue; Biodistribution, Liver 60' (liver, 60', 60 min): 3.16 % ID/g-tissue; Biodistribution, Sm/Lrg. Intestine 1' (small/large intestine, 1', 1 min): 0.51 % ID/g-tissue; Biodistribution, Sm/Lrg. Intestine 5' (small/large intestine, 5', 5 min): 2.71 % ID/g-tissue; Biodistribution, Sm/Lrg. Intestine 60' (small/large intestine, 60', 60 min): 20.21 % ID/g-tissue
2 | CC(=O)N(C)c1c(I)c(C(=O)Nc2ccc(CC(=O)O)cc2)c(I)c(N(C)C(C)=O)c1I [Example F2-P-MDTA, 4-(((3,5-Bis(Acetylmethylamino)-2,4,6-triiodophenyl)carbonyl)amino)-benzeneacetic acid] | 4.83 %ID/g | 0.96 %ID/g | 0.04 %ID/g | 11.5 %ID/g | 5.83 %ID/g | 0.33 %ID/g | 17.9 %ID/g | 12.9 %ID/g | 2.25 %ID/g | 2.47 %ID/g | 9.54 %ID/g | 25.4 %ID/g | 
3 | CC(=O)N(C)c1c(I)c(C(=O)NCCCC(=O)O)c(I)c(N(C)C(C)=O)c1I [Example F4-DP-MDTA, 4-[[[3,5-Bis(acetylmethylamino)-2,4,6-triiodophenyl]carbonyl]amino]-butanoic acid] | 4.91 %ID/g | 0.82 %ID/g | 0.12 %ID/g | 17.9 %ID/g | 7.89 %ID/g | 0.05 %ID/g | 16.1 %ID/g | 11.9 %ID/g | 0.33 %ID/g | 1.73 %ID/g | 11.3 %ID/g | 21.2 %ID/g | 
4 | CC(=O)N(C)c1c(I)c(C(=O)NCCCCCCC(=O)O)c(I)c(N(C)C(C)=O)c1I [Example F7-DP-MDTA] | 2.44 %ID/g | 0.57 %ID/g | 0.05 %ID/g | 9.5 %ID/g | 8.33 %ID/g | 0.16 %ID/g | 17.1 %ID/g | 9.81 %ID/g | 0.77 %ID/g | 4.92 %ID/g | 14.5 %ID/g | 22.2 %ID/g | 

Second part, led by results:

Row | tissue uptake at 1 min [1] | tissue uptake at 5 min [2] | tissue uptake at 1 h [3] | tissue uptake at 1 min [4] | tissue uptake at 5 min [5] | tissue uptake at 1 h [6] | tissue uptake at 1 min [7] | tissue uptake at 5 min [8] | tissue uptake at 1 h [9] | tissue uptake at 1 min [10] | tissue uptake at 5 min [11] | tissue uptake at 1 h [12] | Compound | further results
5 | 4.57 %ID/g | 0.81 %ID/g | 0.03 %ID/g | 17.1 %ID/g | 5.69 %ID/g | 0.16 %ID/g | 12.8 %ID/g | 10.6 %ID/g | 1.03 %ID/g | 1.28 %ID/g | 8.81 %ID/g | 16.5 %ID/g | CC(=O)N(C)c1c(I)c(C(=O)NCC(=O)O)c(I)c(N(C)C(C)=O)c1I [Example F2-DP-MDTA, 4-[[[3,5-Bis(acetylmethylamino)-2,4,6-triiodophenyl]carbonyl]amino]-acetic acid] | 
6 | 3.55 %ID/g | 0.57 %ID/g | 0.07 %ID/g | 5.63 %ID/g | 5.41 %ID/g | 0.63 %ID/g | 29.6 %ID/g | 29.4 %ID/g | 6.13 %ID/g | 1.71 %ID/g | 4.56 %ID/g | 20.4 %ID/g | CC(=O)N(C)c1c(I)c(C(=O)Nc2ccc(CCCC(=O)O)cc2)c(I)c(N(C)C(C)=O)c1I [Example F4-P-MDTA, 4-(((3,5-Bis(acetylmethylamino)-2,4,6-triiodophenyl)carbonyl)amino)benzenebutyric acid] | 
